In general, EC50 refers to the concentration needed to bring the measured effect to its halfway point.

Series [1] has as its system STAT5 transcriptional activity. The experiment in a line: Primary cell screening assay (CD69 expression, STAT5 transcriptional activity). Type of series: cell-based. As to conditions: primary human CD4 T cells. As for the experimental part: It was observed that the ability of different benzotriazole and benzotriazin derivatives to increase STAT5 phosphorylation correlated with the ability of the compounds to induce the expression of CD69 (a STAT5 target gene) (FIG. 2A) but not CD25 (FIG. 2B) in the surface of human CD4 T cells. Based on these findings, a primary cell screening assay was set up according to FIG. 2C to identify derivatives with similar activity. As an example, flow cytometry was performed to isolated activated cells (FIG. 2D), which were expanded in the presence of DMSO or a compound of interest (FIG. 2E), and screened for changes in the expression of CD69 (FIG. 2F).

For series [2], the system named is NK cells. The experiment in a line: In vitro expansion of NK cells with IL-2. As to conditions: 500 IU/ml of IL-2, two HIV-negative donors. Type of series: cell-based, human. An excerpt: (§1) As for CD8 T cells, STATS play an important role in the expansion of NK cells. As such, it was hypothesized that inhibiting STAT SUMOylation may enhance the expansion of NK cells. This has important implications for adoptive cell immunotherapies as NK cells are increasingly becoming an attractive alternative to T cell therapies. In order to address whether inhibiting STAT SUMOylation may enhance NK proliferation in vitro, NK cells were isolated from two human HIV-negative donors and expanded using Miltenyi Biotec NK MACS Medium in the presence of 500 IU/ml of IL-2 and in the presence or absence of HODHBt.

For another series, the system named is STAT5. As to conditions: Bosque et al., Cell Rep. 2017; cited from earlier work.
Another series has as its system STAT5, STAT1, STAT3. Nature of the series: Western blot of phosphorylated STATs in CD8 T cells. The series is classed as cell-based, human. As for the experimental part:
To address whether SUMOylation controls STAT activation in human CD8 T cells, polyclonally activated CD8 T cells were cultured with IL-2 in the presence or absence of HODHBt and levels of phosphorylated STATs were measured by Western blot. […] Proliferation of CD8 T cells is dependent on the activation and phosphorylation of STAT5.
In general, samples are prepared and loaded on to a gel and during the electrophoresis the negatively charged proteins move toward the positively charged anode. In order to further analyze the proteins, they are transferred onto a membrane in a procedure called blotting. After the transfer, the membrane is blocked in order to prevent unwanted membrane-protein interaction in the following steps. To visualize the protein of interest the membrane is commonly first probed using a primary protein-specific antibody followed by a labeled secondary antibody used for detection. An image is taken of the membrane and the result is analyzed.

In series [3] the test system is NK cells. Here is the method: To determine if STAT SUMOylation increases Gzm B expression in NK cells, isolated human NK cells were analyzed after a 3-day incubation with either IL-2, IL-15, HODHBt, IL-2+IL-15, HODHBt+IL-2, HODHBt+IL-15, or HODHBt+IL-2+IL-15.
To further characterize the effects of STAT SUMOylation inhibition in NK cell function, primary human NK cells were isolated and cultured with IL-15 in the presence or absence of HODHBt. 48 hours later, cells were phenotyped by flow cytometry.
To characterize the induction of other proteins known to be important for the cytolytic activity of NK cells, primary human NK cells were isolated from 6 male and 6 female donors and cultured with IL-15 in the presence or absence of HODHBt. 48 hours later, levels of Granzyme A (FIG. 18A), Perforin (FIG. 18B), Granulysin (FIG. 18C), TRAIL (FIG. 18D) and Fas ligand (FASL) (FIG. 18E) were analyzed by flow cytometry.
Antibody-dependent cell-mediated cytotoxicity (ADCC) is mediated by the recognition of an antibody bound to a cell through an Fc receptor present in NK cells, mostly CD16 (FCGR3A). To address whether inhibiting STAT SUMOylation alters CD16 expression in the surface of NK cells, freshly isolated NK cells were treated with either IL-15, HODHBt or a combination of both for 48 hours and surface expression of CD16 was measured by flow cytometry.
Since IL-15 activated STATs, it was hypothesized that STATs, and in particular STAT1, was controlling expression of CXCR5 (C—X—C Motif Chemokine Receptor 5) and that inhibiting STAT SUMOylation enhances CXCR5 expression and promotes migration towards a CXCL13 (C—X—C Motif Chemokine Ligand 13) gradient. CXCL13 controls homing of lymphocytes to follicles in lymph nodes; however whether this mechanism of regulation exists in human NK cells and whether IL-15 controls expression were unknown. To address which one of the two scenarios was potentially playing a role in the presence of NK cells within the follicles, human NK cells were treated with IL-15, HODHBt or a combination of both for 48 hours. Surface expression of CXCR5 and viability were next measured by flow cytometry.
To phenotype the cells, 1×10^5 cells were stained with a viability dye (Fixable Viability Dye eFluor 450, Affymetrix, eBioscience, San Diego, CA) and the surface marker-specific mAb specific for human: PE-anti-CD25 (Caltag, Burlingame, CA) and PE-anti-CD69 (Caltag, Burlingame, CA) followed by flow cytometric analysis in a BD FACScanto II flow cytometer using the FACSDiva software (Becton Dickinson, Mountain View, CA) and analyzed using FlowJo (Tree Star Inc., Ashland, OR).

For another series, the system named is K562. Nature of the series: NK cell killing of K562 cells, E:T 1:1, 4 hours. The series is classed as cell-based, human. Here is the method: It was therefore hypothesized that inhibiting STAT SUMOylation may enhance the ability of IL-15 stimulated NK cells to clear the HIV latent reservoir. To test the hypothesis, NK cells were treated with DMSO, IL-15-stimulated, treated with HODHBt or IL-15-stimulated and treated with HODHBt. Cells were then tested in their ability to kill the erythroleukemia cell line K562, which lack MHC-I. In an experiment, the NK cells from two donors were co-cultured with K562 at an E:T ratio of 1:1 for 4 hours (FIG. 19A). NK cells were pretreated with IL-15, HODHBt, or a combination of both.

Series [4] concerns HIV-infected cultured TCM cells. The experiment in a line: Killing of HIV-infected cultured TCM cells by expanded autologous NK cells. Type of series: cell-based, human. The conditions noted are these: autologous NK cells expanded with IL-2 and HODHBt.
Excerpt: as §1

Where two headings read alike, the source gives them in different places.

With `O=c1c2ccccc2nnn1O` [HODHBt], the “STAT5 transcriptional activity relative to HODHBt” value in series [1] was “the compound with the strongest activity”. In addition, the EC50 in series [1] (read-out: EC50 in the primary cell screening method) was ~63 µM. Further, the NK cell expansion result in the series with NK cells [2] is “enhanced NK cell expansion in vitro”. Also, the “phosphorylation and transcriptional activity of STAT5” value with STAT5 was “enhance phosphorylation and the transcriptional activity of STAT5”. For the same compound, the “phosphorylation of STAT1 and STAT3 in CD8 T cells” value in the series with STAT5, STAT1, STAT3 (HODHBt alone) is “increased the phosphorylation levels of both STAT1 and STAT3”; with STAT5, STAT1, STAT3 (with IL-2, vs IL-2) it was “enhanced those induced by IL-2”. Moreover, the “phosphorylation of STAT5 in CD8 T cells” value in the series on STAT5, STAT1, STAT3 (after IL-2 treatment) is listed as “increased the levels of phosphorylation of STAT5 after IL-2 treatment”. Moreover, the “Gzm B expression in NK cells (percentage of cells and MFI)” value in the series on NK cells [3] (3-day incubation, with IL-2, IL-15 or both) is listed as “increased Gzm B expression in NK cells treated with IL-2, IL-15 or a combination of both”. In addition, the “surface expression of CD16 on NK cells” value with NK cells [3] (48 hours, with or without IL-15) is given as “sufficient to increase the levels of CD16 expression in NK cells independent of the presence of IL-15”. In the series with NK cells [3] (IL-15 in the presence of HODHBt, 48 hours), the “surface expression of CXCR5 on NK cells” value is “dramatically increased in the presence of HODHBt”. Also, the “expression of GZMB in NK cells” value with NK cells [3] (combination of IL-15 and HODHBt, 48 hours) is listed as “greatly increased the expression of GZMB”; in the series on NK cells [3] (single agent, vs media control, 48 hours), “did not have any effect over media control”. Further, the “expression of Granzyme A, Perforin, Granulysin, TRAIL and FASL in NK cells” value with NK cells [3] (combination of IL-15 and HODHBt, vs IL-15 control, 48 hours) is “enhanced gene expression above IL-15 control”. The “viability / survival of NK cells” value in the series on NK cells [3] (human, 48 h) is listed as “did not affect the viability of NK cells either alone or in combination with IL-15”. Besides, the “surface expression of CD69 and CD25 on NK cells” value in the series with NK cells [3] (in combination with IL-15, vs IL-15 alone, 48 hours) was “enhanced the expression of both surface markers over IL-15 alone”. For the same compound, in the series with NK cells [3] (single agent, 48 hours), the “surface expression of CD25 on NK cells” value is reported as “did not change the surface expression”. Besides, the “surface expression of CD69 on NK cells” value with NK cells [3] (single agent, 48 hours) was “did not change the surface expression of CD69”. The “killing of K562 by NK cells expanded with compound” value with K562 (NK cells expanded with IL-2 and HODHBt) is on record as “retained the ability to kill the target cell line K562”. Further, in the series on K562 (NK cells pretreated with combination of IL-15 and HODHBt, E:T 1:1, 4 hours), the “killing of K562 by pretreated NK cells” value was “drastic increase in the cytolytic capacity of NK cells”. Also, the “killing of HIV-infected cultured TCM cells by NK cells expanded with compound” value in series [4] was “as well as HIV-infected cultured TCM cells from the same donor”.

Source of the values: US12441693B2, “Targeting STAT sumoylation to enhance immune responses” (THE GEORGE WASHINGTON UNIVERSITY, priority 2018, dated 2025).
